Test results reported in patent publication US20040127467A1, “Synthesis of pancratistatin prodrugs” (priority 2003, published 2004).

Assays:
RNA viruses = conditions: cited from earlier work
[1] = system: U.S. National Cancer Institute (NCI) panel of cancer cell lines; conditions: cited from earlier work
[2] = system: minipanel of human cancer cell lines; assay: minipanel of human cancer cell lines growth inhibition; assay type: cell-based; conditions: murine P388 and minipanel of human cancer cell lines (Table I)
Method: All of the synthetic products were evaluated against the murine P388 lymphocytic leukemia cell line and a minipanel of human cancer cell lines.

[3] = system: murine P388 lymphocytic leukemia cell line; conditions: compared with pancratistatin (1a); cited from earlier work
[4] = compared with pancratistatin (1a); cited from earlier work

O=C1N[C@H]2[C@H](O)[C@H](O)[C@@H](O)[C@H](O)[C@@H]2c2cc3c(c(O)c21)OCO3 [1a, (+)-pancratistatin]
activity against a range of RNA viruses (in words) (RNA viruses): activity against a range of RNA viruses | in vitro cancer cell growth inhibitory activities (in words) [1]: strong

O=C1N[C@H]2[C@H](O)[C@H](O)[C@@H](O)[C@H](O)[C@@H]2c2cc3c(c(OP(=O)([O-])[O-])c21)OCO3.[Na+].[Na+] [2a, Disodium 7-O-phosphoryl-pancratistatin]
cancer cell line activity (in words) [2]: high activity | activity against the murine P388 lymphocytic leukemia cell (in words) [3]: equal activity | solubility characteristics in water (in words) [4]: greatly improved solubility characteristics in water

C1COCCN1.O=C1NC2C(O)C(O)C(O)C(O)C2c2cc3c(c(OP(=O)(O)O)c21)OCO3 (stereo not drawn) [2k, Morpholine pancratistatin 7-O-phosphate]
water solubility (in words): poor water solubility
